This passage reports IC50 results from patent publication US11021468B2, “TGF-ß inhibitors” (Rigel Pharmaceuticals, Inc., priority 2015, dated 2021).

What is called IC50 is the point on the concentration scale where inhibition reaches its midpoint.

The subject of one test is GDF8. The experiment in a line: AlphaScreen SureFire SMAD3 (p-Ser423/425) assay, GDF8-stimulated (GDF pSMAD (MPC11)). Type of test: cell-based. The note with it: Mus musculus, MPC-11, inhibition of GDF8 signaling, p-SMAD-3 (Ser423/425). The source says: (§1) Example 2: AlphaScreen® SureFire® SMAD3 (p-Ser423/425) Assay
(§2) The p-SMAD-3 (Ser423/425) SureFire® assay has been designed to measure the phosphorylation of endogenous cellular p-SMAD-3 (Ser423/425) in cell lysates and is a system for the screening of both modulators of receptor activation (e.g. agonists and antagonists) as well as agents acting intracellularly, such as small molecule inhibitors of upstream events. The assay will measure p-SMAD-3 (Ser423/425) activation by either cloned or endogenous receptors, and can be applied to primary cells.
(§3) P-SMAD-3 (Ser423/425) SureFire® Assay Protocols
(§4) 96-well Assay Protocol for 293FT and RMS13 adherent cells can be carried out manually or in high throughput with liquid handling robots.
(§5) The cells (80 μL of cells for 96 well plates) were plated in collagen coated tissue culture plates in RPMI or FreeStyle medium (Invitrogen) and incubated overnight. For manual analysis, 6 plates for GDF8, 6 plates for TGFβ, and optionally 6 plates for Alk5ca(ALK5 constitutively active) were used.
(§6) The compound dilution plates were prepared as follows: 12 μL of DMSO was transferred into first column of 96-well plate, and 16 μL of DMSO was transferred into columns 2-12 of the 96-well plate. 12 μL of compound solution was transferred into first column of the DMSO-containing 96-well plate. Three-fold dilution was performed up to column 10 of the DMSO-containing 96-well plate.
(§7) The plate containing cells were treated with compounds for about 10 minutes, and then ligand was added. GDF8 or TGFb was added to plates to stimulate. 293FL cells were stimulated for 90 minutes at 37° C.; and RMS13 cells were stimulated for 60 minutes at 37° C. The medium was then removed from the cells, and 1× Lysis Buffer (about 25 μL) was added and the plate was gently agitated on plate shaker for 5-10 minutes.
(§8) The lysate (5 μL) was then placed into 384-well shallow plates avoiding the generation of bubbles. To this, the Reaction Buffer+Activation Buffer+AlphaScreen® Acceptor beads mixture (5 μL) was added. The plate was sealed with adhesive cover and shielded from light (e.g., with metal foil), and agitated gently on plate shaker for 2 hours at room temperature.
(§9) Dilution buffer+AlphaScreen® Donor beads (2 μL) was then added, and the plate was intubated on the plate shaker for an additional 1½ hours. After completion, the plate was read on Synergy-4 or Enspire plate reader, using AlphaScreen® pSMAD3® settings.
(§10) Representative results for inhibition of GDF8 (data=GDF pSMAD (MPC11) (μM)) and TGF-β (data=TGF-β pSMAD (MPC-11) (μM)) signaling are shown in Table 1: […]
For orientation: Bead proximity is the source of the signal in Alpha formats.

The next test has as its system TGF-β. The experiment in a line: AlphaScreen SureFire SMAD3 (p-Ser423/425) assay, TGF-β-stimulated (TGF-β pSMAD (MPC-11)). Type of test: cell-based. The note with it: Mus musculus, MPC-11, inhibition of TGF-β signaling, p-SMAD-3 (Ser423/425).
Description: as §1, §2, §3, §4, §5, §6, §7, §8, §9, §10

Regarding `Cc1cccc(-c2ncc(C)c(Nc3cc4cn[nH]c4cc3F)n2)c1` [Compound 58, 6-Fluoro-N-(2-(3-methylphenyl)-5-methylpyrimidin-4-yl)-1H-indazol-5-amine], the values for the IC50 in the test with GDF8 and in the test with TGF-β were 394 nM and 808 nM, respectively.

As to `Fc1cccc(-c2nccc(Nc3ccc4[nH]ncc4c3)n2)c1` [Compound 18, N-(2-(3-Fluorophenyl)pyrimidin-4-yl)-1H-indazol-5-amine], the IC50 in the test on GDF8 came out at 154 nM; with TGF-β it was 1360 nM.
